The source of these data is ChEMBL document CHEMBL1122322, “Synthesis and antileishmanial activity of 6-methoxy-4-methyl-N-[6-(substituted-1-piperazinyl)hexyl]-8-quinolinamines and related compounds” (1983).

Assay [1] deals with Leishmania donovani. The experiment in a line: Antileishmanial activity against Leishmania donovani infections in hamsters (at 13 mg/kg). The assay is classed as functional.
Assay [2] deals with Leishmania donovani. As to the kind of experiment: Antileishmanial activity against Leishmania donovani infections in hamsters (3.25 mg/kg); NA means inactive. The assay is classed as functional, organism-based.
For assay [3], the system named is Leishmania donovani. As to the kind of experiment: Glucantime (meglumine antimoniate) index (G index) against Leishmania donovani infections in hamsters. The assay is classed as functional.
Assay [4] concerns Leishmania donovani. The experiment in a line: Antileishmanial activity against Leishmania donovani infections in hamsters (104 mg/kg). The assay is classed as functional, organism-based.
In assay [5] the test system is Leishmania donovani. The experiment in a line: Antileishmanial activity against Leishmania donovani infections in hamsters (0.05 mg/kg). The assay is classed as functional.
For assay [6], the system named is Leishmania donovani. The experiment in a line: Antileishmanial activity against Leishmania donovani infections in hamsters (0.2 mg/kg). The assay is classed as functional.
Assay [7] relates to Leishmania donovani. The experiment in a line: Antileishmanial activity against Leishmania donovani infections in hamsters (0.81 mg/kg). The assay is classed as functional.
Assay [8] deals with Leishmania donovani. As to the kind of experiment: Antileishmanial activity against Leishmania donovani infections in hamsters (208 mg/kg). The assay is classed as functional, organism-based.
Assay [9] has as its system Leishmania donovani. The experiment in a line: Antileishmanial activity against Leishmania donovani infections in hamsters (at 52 mg/kg). The assay is classed as functional.
For assay [10], the system named is Leishmania donovani. As to the kind of experiment: Antileishmanial activity against Leishmania donovani infections in hamsters (3.25 mg/kg). The assay is classed as functional.

The source made the active and inactive calls. The calls are words filed in the database; no cut-off is given here.

Take MEGLUMINE ANTIMONATE: the Suppression in the assay with Leishmania donovani [1] worked out at 42%; in the assay with Leishmania donovani [4], 91.3%. In the assay on Leishmania donovani [2], the NA result is “inactive”. Further, the G index in the assay on Leishmania donovani [3] is 1.
In the case of `CCN(CC)CCCCCCNc1cc(OC)cc2c(C)ccnc12` [SITAMAQUINE], the Suppression was 83.7% in the assay with Leishmania donovani [5]; 99.6% in the assay with Leishmania donovani [6]; 100% in the assay with Leishmania donovani [7]; 100% in the assay on Leishmania donovani [1]; “Toxic” in the assay with Leishmania donovani [8]; 100% in the assay with Leishmania donovani [9]. Besides, the G index in the assay with Leishmania donovani [3] was determined as 474.
As to `COc1cc(NCCCCCCN2CCN(CC(C)O)CC2)c2nccc(C)c2c1.Cl` (stereo unspecified), the Suppression with Leishmania donovani [5] is 35%; in the assay on Leishmania donovani [6], 75.7%; in the assay with Leishmania donovani [7] it was 99.8%; in the assay with Leishmania donovani [1], 99.1%; with Leishmania donovani [8], “Toxic”; with Leishmania donovani [10], 99.4%. For the same compound, in the assay with Leishmania donovani [9], the Suppression is recorded as 99.7%. This compound also registered a G index with Leishmania donovani [3] of 143.
For `COc1cc(NCCCCCCN2CC(C)NC(C)C2)c2nccc(C)c2c1` (stereo unspecified), the Suppression in the assay with Leishmania donovani [6] was 1.3%; in the assay on Leishmania donovani [7], 97.9%; in the assay with Leishmania donovani [1], 100%; in the assay with Leishmania donovani [8], “Toxic”; in the assay with Leishmania donovani [10], 99.8%; with Leishmania donovani [9], 100%. Further, the G index in the assay on Leishmania donovani [3] amounted to 72.
